Experimental data reported in US8791130B2, “Aminopyrimidine derivatives as LRRK2 modulators” (Genentech, Inc., priority 2011, dated 2014).

Target: LRRK2 (Homo sapiens (Human), UniProt Q5S007, G2019S)
Assay: In Vitro LRRK2 LabChip Assay (LRRK2 Ki)
Format: biochemical
Method: In Vitro LRRK2 LabChip Assay This assay was used to determine a compound's potency in inhibiting activity of LRRK2 by determining, Kiapp, IC50, or percent inhibition values. In a polypropylene plate, LRRK2, fluorescently-labeled peptide substrate, ATP and test compound were incubated together. Using a LabChip 3000 (Caliper Life Sciences), after the reaction the substrate was separated by capillary electrophoresis into two populations: phosphorylated and unphosphorylated. The relative amounts of each were quantitated by fluorescence intensity. LRRK2 Ki was determined according to the equation: […]))). Ki values in Table 4 and elsewhere herein are shown in μM. […] Substrate: 5[…] Non-binding plate: 384 well clear V-bottom polypropylene plates (Greiner cat #781280). ATP: 10 mM ATP (Cell Signaling cat #9804). Triton X-100: Triton X-100. Brij-35: Brij-35 (Pierce cat #20150). […] DMSO: DMSO (Sigma cat #34869-100 ML). […] Compound Plate Preparation: For serial dilutions, 34.6 μl DMSO was added to columns 3-24. For the assay controls, 37.5 μl DMSO was added to columns 1 and 2 of rows A and […]-028831 (Staurosporine) was added to columns 1 and 2, row B. […] A Precision instrument was used to perform 1:3.16 serial dilutions (“PLK_BM_serial_halflog”). ATP Preparation: ATP was diluted to 282.1 μM in Complete Kinase Buffer (final concentration was 130 μM). […] Assay Procedure: To a 50 μl polypropylene plate, 5 μl/well buffer/substrate was added by hand to Blank wells. A Biomek FX was used to start the kinase reaction (“PLK SAR 23 ATP”). […] 5 μl/well kinase/substrate in Assay Plate; The plate was incubated for 2 hours in the dark. Biomek FX was used to stop the kinase reaction (“PLK Stop”), and 10 μl/well Stop solution was added to the Assay Plate.

Chain of LRRK2 (Q5S007 970-2527 G2019S): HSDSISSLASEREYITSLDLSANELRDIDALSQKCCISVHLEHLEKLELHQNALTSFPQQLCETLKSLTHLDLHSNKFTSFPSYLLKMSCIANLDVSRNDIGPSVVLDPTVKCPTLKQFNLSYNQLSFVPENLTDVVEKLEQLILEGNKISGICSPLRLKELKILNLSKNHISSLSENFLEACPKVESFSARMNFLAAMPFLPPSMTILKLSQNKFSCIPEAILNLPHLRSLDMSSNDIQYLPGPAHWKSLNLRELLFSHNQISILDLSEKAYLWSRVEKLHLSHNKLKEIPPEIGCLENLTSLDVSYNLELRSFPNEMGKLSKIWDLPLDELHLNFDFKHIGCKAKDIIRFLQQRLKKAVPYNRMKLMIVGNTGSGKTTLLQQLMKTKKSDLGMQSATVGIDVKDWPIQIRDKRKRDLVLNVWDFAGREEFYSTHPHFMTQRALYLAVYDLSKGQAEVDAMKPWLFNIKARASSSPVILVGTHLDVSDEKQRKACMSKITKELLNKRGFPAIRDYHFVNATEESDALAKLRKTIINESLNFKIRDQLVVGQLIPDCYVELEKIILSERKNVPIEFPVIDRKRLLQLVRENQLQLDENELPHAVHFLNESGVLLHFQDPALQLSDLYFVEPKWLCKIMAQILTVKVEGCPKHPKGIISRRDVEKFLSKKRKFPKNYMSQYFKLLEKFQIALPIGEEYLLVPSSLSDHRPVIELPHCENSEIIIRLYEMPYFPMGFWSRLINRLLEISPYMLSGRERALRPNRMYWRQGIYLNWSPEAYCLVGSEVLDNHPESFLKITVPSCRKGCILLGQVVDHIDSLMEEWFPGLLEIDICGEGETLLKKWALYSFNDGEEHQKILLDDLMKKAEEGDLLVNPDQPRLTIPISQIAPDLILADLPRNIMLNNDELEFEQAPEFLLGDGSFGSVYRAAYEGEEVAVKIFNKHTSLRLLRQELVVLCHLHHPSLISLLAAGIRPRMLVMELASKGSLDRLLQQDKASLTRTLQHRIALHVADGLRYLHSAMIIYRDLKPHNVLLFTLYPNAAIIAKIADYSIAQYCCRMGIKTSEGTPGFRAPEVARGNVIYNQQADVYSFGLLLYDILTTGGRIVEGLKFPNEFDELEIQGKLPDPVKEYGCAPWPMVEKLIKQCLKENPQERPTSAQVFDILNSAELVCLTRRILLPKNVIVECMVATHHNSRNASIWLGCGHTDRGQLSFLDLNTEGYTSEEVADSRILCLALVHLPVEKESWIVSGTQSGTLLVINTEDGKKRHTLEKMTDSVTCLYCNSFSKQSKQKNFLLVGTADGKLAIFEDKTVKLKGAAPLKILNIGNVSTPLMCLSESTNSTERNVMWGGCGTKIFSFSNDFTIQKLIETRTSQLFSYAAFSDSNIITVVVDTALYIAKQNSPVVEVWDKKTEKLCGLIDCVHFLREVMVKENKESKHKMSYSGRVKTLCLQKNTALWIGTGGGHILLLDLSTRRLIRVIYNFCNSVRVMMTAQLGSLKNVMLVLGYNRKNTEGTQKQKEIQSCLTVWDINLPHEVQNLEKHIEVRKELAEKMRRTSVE

SMILES: CNc1nc(Nc2ccc(-c3nnn[nH]3)cc2Cl)ncc1C(F)(F)F [Compound 1, N2-(2-chloro-4-(2H-tetrazol-5-yl)phenyl)-N4-methyl-5-(trifluoromethyl) pyrimidine-2,4-diamine]
- Ki: 3 nM

SMILES: CNc1nc(Nc2ccc(-c3nnnn3C)cc2Cl)ncc1C(F)(F)F [Compound 2, N2-(2-chloro-4-(1-methyl-1H-tetrazol-5-yl)phenyl)-N4-methyl-5-(trifluoromethyl) pyrimidine-2,4-diamine]
- Ki: 7 nM

SMILES: CNc1nc(Nc2ccc(-c3nnn(C)n3)cc2Cl)ncc1C(F)(F)F [Compound 3, N2-(2-chloro-4-(2-methyl-2H-tetrazol-5-yl)phenyl)-N4-methyl-5-(trifluoromethyl) pyrimidine-2,4-diamine]
- Ki: 18 nM

SMILES: CNc1nc(Nc2ccc(-n3cncn3)cc2OC)ncc1C(F)(F)F [Compound 4, N2-(2-methoxy-4-(1H-1,2,4-triazol-1-yl)phenyl)-N4-methyl-5-(trifluoromethyl) pyrimidine-2,4-diamine]
- Ki: 3 nM

SMILES: CNc1nc(Nc2ccc(-c3cnn(C)c3)cc2OC)ncc1C(F)(F)F [Compound 5, N2-(2-methoxy-4-(1-methyl-1H-pyrazol-4-yl)phenyl)-N4-methyl-5-(trifluoromethyl) pyrimidine-2,4-diamine]
- Ki: 4 nM

SMILES: CNc1nc(Nc2cc(F)c(-c3nc(C)no3)cc2OC)ncc1C(F)(F)F [Compound 6, N2-(5-fluoro-2-methoxy-4-(3-methyl-1,2,4-oxadiazol-5-yl)phenyl)-N4-methyl-5-(trifluoromethyl) pyrimidine-2,4-diamine]
- Ki: 32 nM

SMILES: CNc1nc(Nc2cc(OC)c(-c3nnc(C)o3)cc2Cl)ncc1C(F)(F)F [Compound 7, N2-(2-chloro-5-methoxy-4-(5-methyl-1,3,4-oxadiazol-2-yl)phenyl)-N4-methyl-5-(trifluoromethyl) pyrimidine-2,4-diamine]
- Ki: 8 nM

SMILES: CNc1nc(Nc2ccc(-c3cncn3C)cc2OC)ncc1C(F)(F)F [Compound 8]
- Ki: 2 nM

SMILES: CNc1nc(Nc2ccc(-c3nnnn3C)cc2OC)ncc1Cl [Compound 10, 5-chloro-N^2-(2-methoxy-4-(1-methyl-1H-tetrazol-5-yl)phenyl)-N^4-methylpyrimidine-2,4-diamine]
- Ki: 7 nM

SMILES: CNc1nc(Nc2cc(OC)c(-c3cnnn3C)cc2Cl)ncc1C(F)(F)F [Compound 11, N^2-(2-chloro-5-methoxy-4-(1-methyl-1H-1,2,3-triazol-5-yl)phenyl)-N^4-methyl-5-(trifluoromethyl) pyrimidine-2,4-diamine]
- Ki: 4 nM

SMILES: CNc1nc(Nc2ccc(-c3cnoc3)cc2OC)ncc1Cl [Compound 14, 5-chloro-N^2-(4-(isoxazol-4-yl)-2-methoxyphenyl)-N^4-methylpyrimidine-2,4-diamine]
- Ki: 15 nM

SMILES: CNc1nc(Nc2ccc(-c3nccn3C)cc2OC)ncc1Cl [Compound 15, 5-chloro-N^2-(2-methoxy-4-(1-methyl-1H-imidazol-2-yl)phenyl)-N^4-methylpyrimidine-2,4-diamine]
- Ki: 7 nM

SMILES: CNc1nc(Nc2ccc(-c3cncn3C)cc2OC)ncc1Cl [Compound 16, 5-chloro-N2-(2-methoxy-4-(1-methyl-1H-imidazol-5-yl)phenyl)-N4-methylpyrimidine-2,4-diamine]
- Ki: 2 nM

SMILES: CNc1nc(Nc2ccc(-c3cnnn3C)cc2OC)ncc1C(F)(F)F [Compound 17, N^2-(2-methoxy-4-(1-methyl-1H-1,2,3-triazol-5-yl)phenyl)-N^4-methyl-5-(trifluoromethyl) pyrimidine-2,4-diamine]
- Ki: 2 nM

SMILES: CNc1nc(Nc2ccc(-c3nnn(C)n3)cc2OC)ncc1C(F)(F)F [Compound 18, N^2-(2-methoxy-4-(2-methyl-2H-tetrazol-5-yl)phenyl)-N^4-methyl-5-(trifluoromethyl) pyrimidine-2,4-diamine]
- Ki: 10 nM

SMILES: CNc1nc(Nc2cc(OC)c(-c3nccn3C)cc2Cl)ncc1C(F)(F)F [Compound 19, N^2-(2-chloro-5-methoxy-4-(1-methyl-1H-imidazol-2-yl)phenyl)-N^4-methyl-5-(trifluoromethyl) pyrimidine-2,4-diamine]
- Ki: 3 nM

SMILES: CNc1nc(Nc2ccc(-c3nnnn3C)cc2OC)ncc1C(F)(F)F [Compound 20, N^2-(2-methoxy-4-(1-methyl-1H-tetrazol-5-yl)phenyl)-N^4-methyl-5-(trifluoromethyl) pyrimidine-2,4-diamine]
- Ki: 3 nM

SMILES: CNc1nc(Nc2cc(OC)c(-c3cncn3C)cc2Cl)ncc1C(F)(F)F [Compound 21, N^2-(2-chloro-5-methoxy-4-(1-methyl-1H-imidazol-5-yl)phenyl)-N^4-methyl-5-(trifluoromethyl) pyrimidine-2,4-diamine]
- Ki: 3 nM

SMILES: CNc1nc(Nc2cc(F)c(-c3nnnn3C)cc2OC)ncc1C(F)(F)F [Compound 22, N^2-(5-fluoro-2-methoxy-4-(1-methyl-1H-tetrazol-5-yl)phenyl)-N^4-methyl-5-(trifluoromethyl) pyrimidine-2,4-diamine]
- Ki: 10 nM

SMILES: CNc1nc(Nc2ccc(-c3cnnn3C)cc2OC)ncc1Cl [Compound 23, 5-chloro-N^2-(2-methoxy-4-(1-methyl-1H-1,2,3-triazol-5-yl)phenyl)-N^4-methylpyrimidine-2,4-diamine]
- Ki: 3 nM

SMILES: CNc1nc(Nc2cc(OC)c(-c3c(C)nn(C)c3C)cc2Cl)ncc1C(F)(F)F [Compound 24, N^2-(2-chloro-5-methoxy-4-(1,3,5-trimethyl-1H-pyrazol-4-yl)phenyl)-N^4-methyl-5-(trifluoromethyl) pyrimidine-2,4-diamine]
- Ki: 3 nM

SMILES: CNc1nc(Nc2ccc(-c3ccnn3C)cc2OC)ncc1C(F)(F)F [Compound 25, N^2-(2-methoxy-4-(1-methyl-1H-pyrazol-5-yl)phenyl)-N^4-methyl-5-(trifluoromethyl) pyrimidine-2,4-diamine]
- Ki: 1 nM

SMILES: CNc1nc(Nc2ccc(-c3c(C)noc3C)cc2OC)ncc1C(F)(F)F [Compound 26, N^2-(4-(3,5-dimethylisoxazol-4-yl)-2-methoxyphenyl)-N^4-methyl-5-(trifluoromethyl) pyrimidine-2,4-diamine]
- Ki: 1 nM

SMILES: CNc1nc(Nc2ccc(-n3cnnn3)cc2OC)ncc1C(F)(F)F [Compound 27, N^2-(2-methoxy-4-(1H-tetrazol-1-yl)phenyl)-N^4-methyl-5-(trifluoromethyl) pyrimidine-2,4-diamine]
- Ki: 2 nM

SMILES: CNc1nc(Nc2cc(OC)c(-c3ccnn3C)cc2Cl)ncc1C(F)(F)F [Compound 28, N^2-(2-chloro-5-methoxy-4-(1-methyl-1H-pyrazol-5-yl)phenyl)-N^4-methyl-5-(trifluoromethyl) pyrimidine-2,4-diamine]
- Ki: 5 nM

SMILES: CCNc1nc(Nc2cc(F)c(-c3nnc(C)o3)cc2OC)ncc1C(F)(F)F [Compound 29, N^4-ethyl-N^2-(5-fluoro-2-methoxy-4-(5-methyl-1,3,4-oxadiazol-2-yl)phenyl)-5-(trifluoromethyl) pyrimidine-2,4-diamine]
- Ki: 7 nM

SMILES: CNc1nc(Nc2cc(F)c(-c3nnc(C)o3)cc2OC)ncc1C(F)(F)F [Compound 30, N^2-(5-fluoro-2-methoxy-4-(5-methyl-1,3,4-oxadiazol-2-yl)phenyl)-N^4-methyl-5-(trifluoromethyl) pyrimidine-2,4-diamine]
- Ki: 12 nM
